Assay results reported in ChEMBL document CHEMBL3885861, “Open TG-GATES”.

Organism: Rattus norvegicus
Assay: Open TG-GATES - Regimen: Daily Repeat
Assay type: toxicity, organism-based, Sprague-Dawley
Parameters: regimen Daily Repeat, gender Male, age 6 weeks
Conditions: in vivo, po, route gavage; for APTT / Bas / Eos / Fbg / Hb / Ht / Lym / MCH / MCHC / MCV / Mono / Neu / PT / Plat / RBC / Ret / WBC: tissue Blood; for KIDNEY_TOTAL: tissue Kidney; for LIVER: tissue Liver; for A/G / ALP / ALT / AST / BUN / CRE / Ca / Cl / DBIL / GLC / IP / K / LDH / Na / PL / RALB / TBIL / TC / TG / TP / gamma-GTP: tissue Plasma
[1] = 0 mg/kg, 72 h, dose level Control, time 3 day
[2] = 0 mg/kg, […], dose level Control, time 7 day
[3] = 0 mg/kg, […], dose level Control, time 14 day
[4] = 0 mg/kg, […], dose level Control, time 28 day
[5] = 2 mg/kg, 72 h, dose level Low, time 3 day
[6] = 2 mg/kg, […], dose level Low, time 7 day
[7] = 2 mg/kg, […], dose level Low, time 14 day
[8] = 2 mg/kg, […], dose level Low, time 28 day

CN(CCOc1ccc(CC2SC(=O)NC2=O)cc1)c1ccccn1.O=C(O)/C=C\C(=O)O (stereo not drawn) [ROSIGLITAZONE MALEATE]
TERMINAL_BW [1]: 242.8 g
APTT [1]: 15.5 s
Bas [1]: 0%
Eos [1]: 1.2%
Fbg [1]: 236.8 mg/dL
Hb [1]: 13 g/dL
Ht [1]: 39.2%
Lym [1]: 76.6%
MCH [1]: 21.1 pg
MCHC [1]: 33%
MCV [1]: 63.9 fL
Mono [1]: 5.2%
Neu [1]: 17.4%
PT [1]: 11.5 s
Plat [1]: 136 x10_4/uL
RBC [1]: 615.6 x10_4/ul
Ret [1]: 6.6%
WBC [1]: 98 x10_2/uL
KIDNEY_TOTAL [1]: 0.8 g
LIVER [1]: 12.6 g
A/G [1]: 2.2
ALP [1]: 1243.6 IU/L
ALT [1]: 35.6 IU/L
AST [1]: 62.6 IU/L
BUN [1]: 14.8 mg/dL
CRE [1]: 0.2 mg/dL
Ca [1]: 11.7 mg/dL
Cl [1]: 104.2 meq/L
DBIL [1]: 0.014 mg/dL
GLC [1]: 197.6 mg/dL
IP [1]: 6.9 mg/dL
K [1]: 4.7 meq/L
LDH [1]: 96.2 IU/L
Na [1]: 140.4 meq/L
PL [1]: 154.8 mg/dL
RALB [1]: 3.9 g/dL
TBIL [1]: 0.04 mg/dL
TC [1]: 83.4 mg/dL
TG [1]: 105.8 mg/dL
TP [1]: 5.8 g/dL
gamma-GTP [1]: 0.2 IU/L
TERMINAL_BW [2]: 274.1 g
TERMINAL_BW [3]: 332.1 g
TERMINAL_BW [4]: 412.9 g
APTT [2]: 16.1 s
Bas [2]: 0%
Eos [2]: 1%
Fbg [2]: 242.4 mg/dL
Hb [2]: 13.4 g/dL
Ht [2]: 40.5%
Lym [2]: 82%
MCH [2]: 20.8 pg
MCHC [2]: 33%
MCV [2]: 63 fL
Mono [2]: 4.4%
Neu [2]: 12.8%
PT [2]: 11.7 s
Plat [2]: 134.6 x10_4/uL
RBC [2]: 643.8 x10_4/ul
Ret [2]: 4.6%
WBC [2]: 98.6 x10_2/uL
APTT [3]: 15.7 s
Bas [3]: 0%
Eos [3]: 1%
Fbg [3]: 247.4 mg/dL
Hb [3]: 14 g/dL
Ht [3]: 42.3%
Lym [3]: 74.4%
MCH [3]: 20.6 pg
MCHC [3]: 33%
MCV [3]: 62.2 fL
Mono [3]: 6%
Neu [3]: 18.6%
PT [3]: 11.5 s
Plat [3]: 126.2 x10_4/uL
RBC [3]: 680.2 x10_4/ul
Ret [3]: 3.6%
WBC [3]: 124.2 x10_2/uL
APTT [4]: 16 s
Bas [4]: 0%
Eos [4]: 1%
Fbg [4]: 242.4 mg/dL
Hb [4]: 14.6 g/dL
Ht [4]: 44%
Lym [4]: 75.2%
MCH [4]: 19.5 pg
MCHC [4]: 33.2%
MCV [4]: 58.9 fL
Mono [4]: 7.6%
Neu [4]: 16.4%
PT [4]: 11.7 s
Plat [4]: 120.2 x10_4/uL
RBC [4]: 747.6 x10_4/ul
Ret [4]: 2.6%
WBC [4]: 114.8 x10_2/uL
KIDNEY_TOTAL [2]: 0.7 g
KIDNEY_TOTAL [3]: 0.9 g
KIDNEY_TOTAL [4]: 0.9 g
LIVER [2]: 12.9 g
LIVER [3]: 15.7 g
LIVER [4]: 17.1 g
A/G [2]: 2
ALP [2]: 1306.8 IU/L
ALT [2]: 33.2 IU/L
AST [2]: 58.8 IU/L
BUN [2]: 18.2 mg/dL
CRE [2]: 0.5 mg/dL
Ca [2]: 19.5 mg/dL
Cl [2]: 104.8 meq/L
DBIL [2]: 0.01 mg/dL
GLC [2]: 181.4 mg/dL
IP [2]: 7.1 mg/dL
K [2]: 4.5 meq/L
LDH [2]: 79 IU/L
Na [2]: 140 meq/L
PL [2]: 148.6 mg/dL
RALB [2]: 3.8 g/dL
TBIL [2]: 0.028 mg/dL
TC [2]: 76.6 mg/dL
TG [2]: 138.8 mg/dL
TP [2]: 5.7 g/dL
gamma-GTP [2]: 0.2 IU/L
A/G [3]: 2.1
ALP [3]: 1411 IU/L
ALT [3]: 32.8 IU/L
AST [3]: 62.4 IU/L
BUN [3]: 19 mg/dL
CRE [3]: 0.4 mg/dL
Ca [3]: 11.1 mg/dL
Cl [3]: 106 meq/L
DBIL [3]: 0.01 mg/dL
GLC [3]: 186.4 mg/dL
IP [3]: 7.2 mg/dL
K [3]: 4.5 meq/L
LDH [3]: 65 IU/L
Na [3]: 143 meq/L
PL [3]: 159.4 mg/dL
RALB [3]: 3.9 g/dL
TBIL [3]: 0.036 mg/dL
TC [3]: 76.4 mg/dL
TG [3]: 186.4 mg/dL
TP [3]: 5.8 g/dL
gamma-GTP [3]: 1 IU/L
A/G [4]: 1.9
ALP [4]: 1035.6 IU/L
ALT [4]: 29.2 IU/L
AST [4]: 55 IU/L
BUN [4]: 18.4 mg/dL
CRE [4]: 0.4 mg/dL
Ca [4]: 10.7 mg/dL
Cl [4]: 105 meq/L
DBIL [4]: 0.012 mg/dL
GLC [4]: 183 mg/dL
IP [4]: 6.1 mg/dL
K [4]: 4.4 meq/L
LDH [4]: 68.8 IU/L
Na [4]: 139.8 meq/L
PL [4]: 144.8 mg/dL
RALB [4]: 3.9 g/dL
TBIL [4]: 0.036 mg/dL
TC [4]: 73.2 mg/dL
TG [4]: 162 mg/dL
TP [4]: 5.9 g/dL
gamma-GTP [4]: 0.4 IU/L
TERMINAL_BW [5]: 243.4 g
APTT [5]: 15.7 s
Bas [5]: 0%
Eos [5]: 1%
Fbg [5]: 233.4 mg/dL
Hb [5]: 13.2 g/dL
Ht [5]: 40.2%
Lym [5]: 73%
MCH [5]: 20.7 pg
MCHC [5]: 32.7%
MCV [5]: 63.4 fL
Mono [5]: 7.4%
Neu [5]: 18.8%
PT [5]: 11.7 s
Plat [5]: 133 x10_4/uL
RBC [5]: 634.8 x10_4/ul
Ret [5]: 6.7%
WBC [5]: 88.6 x10_2/uL
KIDNEY_TOTAL [5]: 0.7 g
LIVER [5]: 12.2 g
A/G [5]: 2.1
ALP [5]: 1105.8 IU/L
ALT [5]: 36 IU/L
AST [5]: 64.2 IU/L
BUN [5]: 15.6 mg/dL
CRE [5]: 0.2 mg/dL
Ca [5]: 11.5 mg/dL
Cl [5]: 104.4 meq/L
DBIL [5]: 0.01 mg/dL
GLC [5]: 189.4 mg/dL
IP [5]: 8 mg/dL
K [5]: 4.6 meq/L
LDH [5]: 128.2 IU/L
Na [5]: 140.8 meq/L
PL [5]: 152.2 mg/dL
RALB [5]: 3.9 g/dL
TBIL [5]: 0.034 mg/dL
TC [5]: 83 mg/dL
TG [5]: 88.2 mg/dL
TP [5]: 5.8 g/dL
gamma-GTP [5]: 0 IU/L
TERMINAL_BW [6]: 271.5 g
TERMINAL_BW [7]: 343.6 g
TERMINAL_BW [8]: 425.3 g
APTT [6]: 16.1 s
Bas [6]: 0%
Eos [6]: 1%
Fbg [6]: 246.6 mg/dL
Hb [6]: 13.3 g/dL
Ht [6]: 40.4%
Lym [6]: 77.6%
MCH [6]: 20.9 pg
MCHC [6]: 32.9%
MCV [6]: 63.5 fL
Mono [6]: 5.2%
Neu [6]: 16.2%
PT [6]: 11.5 s
Plat [6]: 134.4 x10_4/uL
RBC [6]: 636.8 x10_4/ul
Ret [6]: 5.1%
WBC [6]: 102.8 x10_2/uL
APTT [7]: 15.3 s
Bas [7]: 0%
Eos [7]: 0.8%
Fbg [7]: 233.4 mg/dL
Hb [7]: 13.4 g/dL
Ht [7]: 40.9%
Lym [7]: 77.6%
MCH [7]: 20.2 pg
MCHC [7]: 32.8%
MCV [7]: 61.5 fL
Mono [7]: 5.4%
Neu [7]: 16.2%
PT [7]: 11.7 s
Plat [7]: 116.6 x10_4/uL
RBC [7]: 666 x10_4/ul
Ret [7]: 3.8%
WBC [7]: 109.2 x10_2/uL
APTT [8]: 15.7 s
Bas [8]: 0%
Eos [8]: 1%
Fbg [8]: 236.8 mg/dL
Hb [8]: 14.4 g/dL
Ht [8]: 44%
Lym [8]: 83.2%
MCH [8]: 18.7 pg
MCHC [8]: 32.7%
MCV [8]: 57.2 fL
Mono [8]: 3.8%
Neu [8]: 12%
PT [8]: 11.9 s
Plat [8]: 108.5 x10_4/uL
RBC [8]: 769.2 x10_4/ul
Ret [8]: 2.2%
WBC [8]: 93.8 x10_2/uL
KIDNEY_TOTAL [6]: 0.7 g
KIDNEY_TOTAL [7]: 0.8 g
KIDNEY_TOTAL [8]: 0.7 g
LIVER [6]: 12.8 g
LIVER [7]: 15.1 g
LIVER [8]: 16.8 g
A/G [6]: 2
ALP [6]: 1242 IU/L
ALT [6]: 32.4 IU/L
AST [6]: 62.2 IU/L
BUN [6]: 19 mg/dL
CRE [6]: 0.5 mg/dL
Ca [6]: 11.4 mg/dL
Cl [6]: 104.6 meq/L
DBIL [6]: 0.012 mg/dL
GLC [6]: 183.4 mg/dL
IP [6]: 7.2 mg/dL
K [6]: 4.3 meq/L
LDH [6]: 118 IU/L
Na [6]: 140.8 meq/L
PL [6]: 144.6 mg/dL
RALB [6]: 3.8 g/dL
TBIL [6]: 0.034 mg/dL
TC [6]: 73.6 mg/dL
TG [6]: 100.6 mg/dL
TP [6]: 5.7 g/dL
gamma-GTP [6]: 0.6 IU/L
A/G [7]: 2.1
ALP [7]: 1340.2 IU/L
ALT [7]: 35.2 IU/L
AST [7]: 64.8 IU/L
BUN [7]: 18 mg/dL
CRE [7]: 0.4 mg/dL
Ca [7]: 11.2 mg/dL
Cl [7]: 105.6 meq/L
DBIL [7]: 0.01 mg/dL
GLC [7]: 189.8 mg/dL
IP [7]: 7.8 mg/dL
K [7]: 4.4 meq/L
LDH [7]: 92.2 IU/L
Na [7]: 143.2 meq/L
PL [7]: 142.2 mg/dL
RALB [7]: 3.8 g/dL
TBIL [7]: 0.032 mg/dL
TC [7]: 70.4 mg/dL
TG [7]: 110 mg/dL
TP [7]: 5.7 g/dL
gamma-GTP [7]: 1 IU/L
A/G [8]: 2
ALP [8]: 1172.5 IU/L
ALT [8]: 34 IU/L
AST [8]: 62.8 IU/L
BUN [8]: 18.2 mg/dL
CRE [8]: 0.4 mg/dL
Ca [8]: 10.6 mg/dL
Cl [8]: 105 meq/L
DBIL [8]: 0.01 mg/dL
GLC [8]: 185.2 mg/dL
IP [8]: 6.4 mg/dL
K [8]: 4.2 meq/L
LDH [8]: 90.2 IU/L
Na [8]: 141.2 meq/L
PL [8]: 119 mg/dL
RALB [8]: 3.9 g/dL
TBIL [8]: 0.035 mg/dL
TC [8]: 54.8 mg/dL
TG [8]: 126.5 mg/dL
TP [8]: 5.9 g/dL
gamma-GTP [8]: 0 IU/L
